Source: patent US20220098197A1, “SALTS OF HETEROCYCLIC COMPOUND AND USE THEREOF” (priority 2019, published 2022)

Experiments:
CS-induced ALI mice [1] = assay: CS-induced lung injury model: in vivo cytokine assay by ELISA in BALF; design: species or system Balb/c mice; conditions: p<0.01
Description: Model preparation: The mice were randomly divided into 5 groups (12 mice in each group), which were the control group (the mice were exposed to fresh air), the saline group (the mice were exposed to cigarette smoke), dexamethasone (Dex) group (1 mg/kg) (the mice were exposed to cigarette smoke), CT-NA 10 mg/kg group and CT-NA 30 mg/kg group (the mice were exposed to cigarette smoke). According to the grouping, the mice were intragastrically administered saline, Dex and CT-NA, respectively. […] 24 hrs after the last exposure to the cigarette smoke, the partial pressure of oxygen (PO2) of all mice was measured by the Moor VMS-OXY™ measuring instrument, which was used to measure the oxygenated/deoxygenated hemoglobin concentration and oxygen saturation (percentage) in the microcirculation at the wavelength range of 500 to 650 nm. […] The expression levels of pro-inflammatory cytokines (TNF-α, IL-1β, IL-6), chemokines (KC) and anti-inflammatory cytokines (IL-10) in the BALF supernatant were determined using respective ELISA determination kits according to the instruction manual. After the optical density at 450 nm was measured, the expression of cytokines was calculated via the standard curve.

LPS-induced ALI mice = assay: LPS-induced ALI model: lung MPO activity assay; assay type: in vivo, Balb/c mice; conditions: CT-NA 10 or 30 mg/kg (P<0.01, dose dependence), Dex 1 mg/kg (P<0.01)
Description: Specific pathogen-free (SPF) Balb/c mice (♂/♀; 20-26 g; 8 weeks old) were purchased from Shanghai SIPPR-BK Experimental Animal Co., Ltd. Mice were kept in an isolated ventilated cage in an environment of 40-60% humidity, 24±2° C., and 12 hrs/12 hrs dark-light cycle, and had free access to food and water. The method for preparing the LPS-induced ALI model was simply described as follows. The mice were randomly divided into a control group (12 mice) and an LPS group (48 mice). The LPS group (48 mice) was further divided into four subgroups (12 mice in each subgroup). The unanaesthetized mice in the four subgroups of LPS were intragastrically administered with normal saline (NS), CT-NA at 10 mg/kg or 30 mg/kg, and Dex at 1 mg/kg, respectively. One hour later, the mice were anesthetized with sodium pentobarbital (intraperitoneal injection at 40 mg/kg), and then subjected to intratracheal instillation of NS to control group and LPS (4 mg/kg) to all LPS subgroups. […] 24 hrs after LPS challenge, the oxygen saturation (SO2) of all mice was measured by a Moor VMS-OXY™ instrument which measured SO2 (%) in the microcirculation at the wavelength range of 500 to 650 nm.
The MPO activity assay procedure was as follows. […] Then MPO activity was determined by measuring the changes in absorbance at 460 nm via the standard curves by using MPO assay kits.

RAW 264.7 macrophages = assay: In vitro cytokines mRNA by RT-PCR, CSE- and PGD2-stimulated macrophages; assay type: cell-based, mouse; conditions: CT-NA 10 and 100 μM, p<0.01
Description: The cigarette smoke generated from 3R4F research grade cigarettes was passed through 50 ml PBS by a vacuum pump. Five cigarettes were used to make smoke that passed 50 ml PBS, and each cigarette was lit for 5 minutes. The control solution was prepared in the absence of cigarettes by using a similar method. After extraction, CSE was stored at −80° C.
RAW 264.7 macrophages were added to two 12-well plates. Thereafter, the medium of the 12-well plate was replaced with serum-free RPMI-1640 medium, and the macrophages were incubated for 10-12 hrs and then exposed to CT-NA (10 and 100 μM) for 1 hour. One hour later, one 12-well plate was treated with CSE (4%) and the other with PGD2 (10 μM) for 24 hrs. After the treatment, the supernatant of the treated cells was collected to measure the protein levels of TNF-α, IL-1β, IL-6, KC and IL-10 extracellularly secreted using ELISA kits according to the method of the instructions. Subsequently, RNA samples from each treated plate were extracted and reverse-transcripted into cDNA with HiScript5xQRTSuperMix, and then subjected to RT-PCR. RT-PCR was performed with the BioRad CFX96 Touch™ Real-Time PCR Detection System (BioRad, USA) using AceQ® qPCR SYBR Green Master Mix. And the threshold cycle numbers were obtained using BioRad CFX Manager Software. The primers used for RT-PCR reaction were shown in Table 1. β-actin was used as an internal control. The RT-PCR reactions were triplicated and the relative expression of target mRNA was normalized by the respective β-actin.

CS-induced ALI mice [2] = assay: CS-induced lung injury model: lung MPO assay; assay type: in vivo, Balb/c mice; conditions: CS exposure; CT-NA 10 and 30 mg/kg, Dex 1 mg/kg; p<0.01
Description: Model preparation: The mice were randomly divided into 5 groups (12 mice in each group), which were the control group (the mice were exposed to fresh air), the saline group (the mice were exposed to cigarette smoke), dexamethasone (Dex) group (1 mg/kg) (the mice were exposed to cigarette smoke), CT-NA 10 mg/kg group and CT-NA 30 mg/kg group (the mice were exposed to cigarette smoke). According to the grouping, the mice were intragastrically administered saline, Dex and CT-NA, respectively. Thereafter, the mice were exposed to fresh air or cigarette smoke generated from 3R4F research-grade cigarettes (containing about 600 mg TPM/m^3 and 29.9 mg nicotine/m^3) in a cuboid plastic box (65×50x×45 cm). Ten cigarettes were burned every day for seven days. After one cigarette was burned, the next cigarette was ignited. […] The lung tissue was collected for determination of lung weight coefficient, histological examination and MPO activity.
In order to evaluate MPO activity, 50 mg strips of left lung tissue were washed, and then homogenized with normal saline. MPO activity was determined by measuring the changes in absorbance at 460 nm according to the detection standard by using MPO assay kit.

neutrophils = assay: PGD2-induced neutrophils migration in vitro, Boyden chamber (Example 2); assay type: cell-based, mice; conditions: pretreatment CT-NA 1 μM or 10 μM, OC459 10 μM; 4 hrs; P<0.01
Description: The method for isolating neutrophils and testing effect of CT-NA on neutrophils migration was briefly described as follows. 1.5% glycogen was injected intragastrically into mice at a dose of 20 ml/kg body weight. 4 hrs later, the mice were euthanized to isolate neutrophils from the peritoneal lavage. Effect of CT-NA on the migration of neutrophils was detected using the Boyden chamber assay kit (3 um pore size, Billerica, Mass.). PGD2 was used as a chemoattractant because the activated PGD2/CRTH2 receptors promoted the neutrophils migration. Firstly, the isolated neutrophils were inoculated at 4×10^5 cells/ml into the upper side of well of the Boyden chamber, and the lower chamber contained different concentrations of PGD2 (0.1, 1 and 10 μM), and the neutrophils were allowed to migrate towards PGD2 for 4 hrs at 37° C. in order to find out the suitable PGD2 concentration. After evaluation of the suitable PGD2 concentration, the migration of neutrophils pretreated with CT-NA (1 and 10 μM) and OC459 (10 μM), another effective CRTH2 inhibitor, toward PGD2 (1 μM) was assessed for 4 hrs.

RAW264.7 macrophages = assay: Cell viability (MTT) assay with LPS/PGD2, RAW264.7; assay type: cell-based, mouse
Description: The cell lines of RAW 264.7 macrophages and mouse leukemia mononuclear macrophages were purchased from ATCC (Manassas, Va.), and cultured in RPMI-1640 medium containing penicillin (100 U/ml), streptomycin (100 μg/ml) and 10% fetal bovine serum. RAW264.7 macrophage is an excellent model for screening anti-inflammatory drugs and evaluating the inhibitor pathways that stimulated the production of pro-inflammatory cytokines and enzymes. MTT was used to determine the cytotoxicity of CT-NA alone and its combination with PGD2 and LPS on RAW264.7 macrophages and isolated peritoneal macrophages according to the manufacturer's protocol. Briefly, RAW 264.7 macrophages were plated in a 96-well plate at a concentration of 4×10^5 cells/ml for 12 hrs, and then exposed to CT-NA (0-200 μM) at 37° C. for 1 hour. Next, RAW 264.7 macrophages were further exposed to LPS (100 ng/ml) and PGD2 (10 μM) for 24 hrs, and then treated with MTT (5 mg/ml) at 37° C. for 4 hrs. Then, the supernatant of each well was replaced with DMSO (200 μl/well), and the absorbance was measured at 570 nm.

CN([C@@H]1CCc2c(CC(=O)[O-])c3cccnc3n2C1)S(=O)(=O)c1ccc(F)cc1.[Na+] [Sodium salt hydrate]
CS-induced overexpression of TNF-α, IL-1β, IL-6 and KC in BALF (CS-induced ALI mice [1]; CT-NA 10 and 30 mg/kg intragastric): effectively reduced
CS-induced inhibition of IL-10 in BALF (CS-induced ALI mice [1]; CT-NA treatment): reversed
MPO activity in lung tissues (LPS-induced ALI mice): remarkably reduced
mRNA levels of IL-1β, IL-6, TNF-α and KC, CSE-stimulated (RAW 264.7 macrophages; CSE (4%) 24 hrs): inhibited
CSE-induced inhibition of IL-10, mRNA (RAW 264.7 macrophages; CSE (4%), dose-dependent): reversed
mRNA levels of IL-1β, IL-6, TNF-α and KC, PGD2-stimulated (RAW 264.7 macrophages; PGD2 (10 μM) 24 hrs): inhibited
PGD2-induced inhibition of IL-10, mRNA (RAW 264.7 macrophages; PGD2 (10 μM), dose-dependent): reversed
MPO activity of lung tissues (CS-induced ALI mice [2]): attenuated
neutrophils migration induced by 1 μM PGD2 (neutrophils): significantly reduced
cytotoxicity (MTT), LPS plus CT-NA (RAW264.7 macrophages; LPS (100 ng/ml) plus CT-NA up to 100 μM): non-toxic
cytotoxicity (MTT), PGD2 plus CT-NA (RAW264.7 macrophages; PGD2 (10 μM) plus CT-NA up to 100 μM): non-toxic
